Assays:
Assay in all cases: CEREP radioligand binding
Y2 (h) = biological target: T1, Y2 (h) (Homo sapiens, UniProt P49146); details: % of control specific binding
T1 construct: purchased CEREP
Experimental: (§1) SB-334867 was evaluated in a selectivity screen performed at CEREP (Paris, France). The screen consisted of binding assays on a panel of 79 target receptors. The specific binding (SB) of a radioligand to each target receptor was defined as the difference between the total binding and the nonspecific binding determined in the presence of a cold competitor in excess. […] Details on the CEREP screen are available from www.cerep.fr.

GAL2 (h) = biological target: T2, GAL2 (h) (Homo sapiens, UniProt O43603); details: % of control specific binding
T2 construct: purchased CEREP
Experimental: as §1

BZD (peripheral) = biological target: T3, BZD (peripheral) (Rattus norvegicus, UniProt P16257); details: % of control specific binding
T3 construct: purchased CEREP
T3 sequence (P16257 whole entry): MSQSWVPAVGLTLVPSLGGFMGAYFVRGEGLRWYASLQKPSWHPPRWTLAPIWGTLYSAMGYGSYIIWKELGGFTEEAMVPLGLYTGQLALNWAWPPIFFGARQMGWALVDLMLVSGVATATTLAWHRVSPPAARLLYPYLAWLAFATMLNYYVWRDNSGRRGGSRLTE
Experimental: as §1

M2 (h) = biological target: T4, M2 (h) (Homo sapiens, UniProt P08172); details: % of control specific binding
T4 construct: purchased CEREP
Experimental: as §1

5-HT6 (h) = biological target: T5, 5-HT6 (h) (Homo sapiens, UniProt P50406); details: % of control specific binding
T5 construct: purchased CEREP
Experimental: as §1

NK3 (h) = biological target: T6, NK3 (h) (Homo sapiens, UniProt P29371); details: % of control specific binding
T6 construct: purchased CEREP
T6 sequence (P29371 whole entry): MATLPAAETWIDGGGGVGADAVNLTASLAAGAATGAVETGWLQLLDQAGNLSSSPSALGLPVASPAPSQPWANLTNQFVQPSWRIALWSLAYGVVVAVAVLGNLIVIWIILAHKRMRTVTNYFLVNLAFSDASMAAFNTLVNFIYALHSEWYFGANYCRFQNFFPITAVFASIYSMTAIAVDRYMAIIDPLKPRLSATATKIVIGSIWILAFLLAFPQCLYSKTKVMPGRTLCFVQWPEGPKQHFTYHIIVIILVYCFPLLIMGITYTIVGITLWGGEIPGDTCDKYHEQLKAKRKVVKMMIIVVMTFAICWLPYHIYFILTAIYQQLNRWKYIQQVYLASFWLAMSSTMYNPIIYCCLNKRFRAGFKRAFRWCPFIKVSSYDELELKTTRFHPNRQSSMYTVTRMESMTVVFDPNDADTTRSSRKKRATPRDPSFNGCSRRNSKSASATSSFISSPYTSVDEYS
Experimental: as §1

beta 2 (h) = biological target: T7, beta 2 (h) (Homo sapiens, UniProt P07550); details: % of control specific binding
T7 construct: purchased CEREP
Experimental: as §1

MT2 (h) (agonist site) = biological target: T8, MT2 (h) (agonist site) (Homo sapiens, UniProt P49286); details: % of control specific binding
T8 construct: purchased CEREP
Experimental: as §1

NK1 (h) = biological target: T9, NK1 (h) (Homo sapiens, UniProt P25103); details: % of control specific binding
T9 construct: purchased CEREP
T9 sequence (P25103 whole entry): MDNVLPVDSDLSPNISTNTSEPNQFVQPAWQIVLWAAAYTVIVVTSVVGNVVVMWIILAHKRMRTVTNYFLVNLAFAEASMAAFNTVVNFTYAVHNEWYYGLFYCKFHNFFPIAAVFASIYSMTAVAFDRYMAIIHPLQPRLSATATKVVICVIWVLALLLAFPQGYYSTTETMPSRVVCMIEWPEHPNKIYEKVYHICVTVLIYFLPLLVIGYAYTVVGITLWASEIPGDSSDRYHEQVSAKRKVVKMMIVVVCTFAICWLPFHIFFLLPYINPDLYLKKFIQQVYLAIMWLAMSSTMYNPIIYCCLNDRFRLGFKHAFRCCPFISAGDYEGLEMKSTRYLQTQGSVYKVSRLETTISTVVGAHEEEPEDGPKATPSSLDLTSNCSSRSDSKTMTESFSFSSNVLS
Experimental: as §1

ORL1 (h) (NOP) = biological target: T10, ORL1 (h) (NOP) (Homo sapiens, UniProt P41146); details: % of control specific binding
T10 construct: purchased CEREP
T10 sequence (P41146 whole entry): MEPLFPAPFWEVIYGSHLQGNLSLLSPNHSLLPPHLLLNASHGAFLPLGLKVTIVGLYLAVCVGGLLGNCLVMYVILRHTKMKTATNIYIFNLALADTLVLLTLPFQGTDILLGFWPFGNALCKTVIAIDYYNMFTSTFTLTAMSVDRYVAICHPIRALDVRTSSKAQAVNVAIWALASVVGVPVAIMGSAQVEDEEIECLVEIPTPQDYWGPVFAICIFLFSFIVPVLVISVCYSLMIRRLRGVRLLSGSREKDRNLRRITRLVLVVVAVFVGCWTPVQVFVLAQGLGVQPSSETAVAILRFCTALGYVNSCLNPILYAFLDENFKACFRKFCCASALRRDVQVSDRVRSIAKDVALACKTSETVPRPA
Experimental: as §1

AT1 (h) = biological target: T11, AT1 (h) (Homo sapiens, UniProt P30556); details: % of control specific binding
T11 construct: purchased CEREP
Experimental: as §1

D2S (h) = biological target: T12, D2S (h) (Homo sapiens, UniProt P14416); details: % of control specific binding
T12 construct: purchased CEREP
Experimental: as §1

D5 (h) = biological target: T13, D5 (h) (Homo sapiens, UniProt P21918); details: % of control specific binding
T13 construct: purchased CEREP
T13 sequence (P21918 whole entry): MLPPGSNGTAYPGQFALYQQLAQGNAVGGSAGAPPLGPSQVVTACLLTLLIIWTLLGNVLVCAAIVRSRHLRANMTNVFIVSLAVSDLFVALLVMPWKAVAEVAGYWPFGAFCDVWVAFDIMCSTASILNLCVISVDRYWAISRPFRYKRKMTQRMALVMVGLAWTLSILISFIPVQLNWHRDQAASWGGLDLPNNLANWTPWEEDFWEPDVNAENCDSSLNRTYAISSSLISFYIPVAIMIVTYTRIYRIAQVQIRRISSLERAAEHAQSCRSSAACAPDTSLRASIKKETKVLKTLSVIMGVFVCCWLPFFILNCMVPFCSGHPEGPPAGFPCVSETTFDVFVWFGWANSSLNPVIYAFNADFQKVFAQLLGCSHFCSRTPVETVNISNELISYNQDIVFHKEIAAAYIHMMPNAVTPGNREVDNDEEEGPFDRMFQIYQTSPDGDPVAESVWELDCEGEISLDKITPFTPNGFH
Experimental: as §1

[1] = system: Ca2+ channel (L, verapamil site) (phenylalkylamines); details: % of control specific binding
Experimental: as §1

D3 (h) = biological target: T14, D3 (h) (Homo sapiens, UniProt P35462); details: % of control specific binding
T14 construct: purchased CEREP
Experimental: as §1

B2 (h) = biological target: T15, B2 (h) (Homo sapiens, UniProt P30411); details: % of control specific binding
T15 construct: purchased CEREP
T15 sequence (P30411 whole entry): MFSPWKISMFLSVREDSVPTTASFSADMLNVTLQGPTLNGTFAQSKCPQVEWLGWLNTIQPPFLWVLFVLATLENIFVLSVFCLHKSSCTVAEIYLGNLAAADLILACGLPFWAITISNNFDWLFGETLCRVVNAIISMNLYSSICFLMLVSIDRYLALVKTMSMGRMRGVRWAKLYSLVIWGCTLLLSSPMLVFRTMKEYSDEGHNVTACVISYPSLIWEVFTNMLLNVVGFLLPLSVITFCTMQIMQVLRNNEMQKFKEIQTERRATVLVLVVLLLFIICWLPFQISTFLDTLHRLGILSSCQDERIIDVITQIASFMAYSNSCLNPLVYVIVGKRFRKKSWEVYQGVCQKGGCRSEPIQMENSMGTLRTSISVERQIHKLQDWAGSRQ
Experimental: as §1

Cl- channel = details: % of control specific binding
Experimental: as §1

P2X = details: % of control specific binding
Experimental: as §1

5-HT7 (h) = biological target: T16, 5-HT7 (h) (Homo sapiens, UniProt P34969); details: % of control specific binding
T16 construct: purchased CEREP
Experimental: as §1

BB (non-selective) = details: % of control specific binding
Experimental: as §1

M5 (h) = biological target: T17, M5 (h) (Homo sapiens, UniProt P08912); details: % of control specific binding
T17 construct: purchased CEREP
Experimental: as §1

V1a (h) = biological target: T18, V1a (h) (Homo sapiens, UniProt P37288); details: % of control specific binding
T18 construct: purchased CEREP
Experimental: as §1

TXA2/PGH2 (h) (TP) = biological target: T19, TXA2/PGH2 (h) (TP) (Homo sapiens, UniProt P21731); details: % of control specific binding
T19 construct: purchased CEREP
Experimental: as §1

5-HT transporter (h) = biological target: T20, 5-HT transporter (h) (Homo sapiens, UniProt P31645); details: % of control specific binding
T20 construct: purchased CEREP
T20 sequence (P31645 whole entry): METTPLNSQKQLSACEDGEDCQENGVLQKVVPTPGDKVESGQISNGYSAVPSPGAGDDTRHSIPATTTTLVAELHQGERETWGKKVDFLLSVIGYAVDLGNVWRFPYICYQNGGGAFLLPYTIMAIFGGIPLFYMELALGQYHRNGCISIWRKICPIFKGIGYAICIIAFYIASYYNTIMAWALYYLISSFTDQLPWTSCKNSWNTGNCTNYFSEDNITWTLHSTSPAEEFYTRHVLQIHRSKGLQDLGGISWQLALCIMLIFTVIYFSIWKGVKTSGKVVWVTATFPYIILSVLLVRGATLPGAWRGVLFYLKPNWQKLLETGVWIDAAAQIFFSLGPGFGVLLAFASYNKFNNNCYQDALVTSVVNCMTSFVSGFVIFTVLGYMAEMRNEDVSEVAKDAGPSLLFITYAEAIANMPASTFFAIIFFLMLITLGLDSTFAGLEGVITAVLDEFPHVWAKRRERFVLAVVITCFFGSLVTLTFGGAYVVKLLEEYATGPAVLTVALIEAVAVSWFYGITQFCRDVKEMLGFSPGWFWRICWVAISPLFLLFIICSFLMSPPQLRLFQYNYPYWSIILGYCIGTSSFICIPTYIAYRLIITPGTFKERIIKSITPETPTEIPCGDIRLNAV
Experimental: as §1

GAL1 (h) = biological target: T21, GAL1 (h) (Homo sapiens, UniProt P47211); details: % of control specific binding
T21 construct: purchased CEREP
T21 sequence (P47211 whole entry): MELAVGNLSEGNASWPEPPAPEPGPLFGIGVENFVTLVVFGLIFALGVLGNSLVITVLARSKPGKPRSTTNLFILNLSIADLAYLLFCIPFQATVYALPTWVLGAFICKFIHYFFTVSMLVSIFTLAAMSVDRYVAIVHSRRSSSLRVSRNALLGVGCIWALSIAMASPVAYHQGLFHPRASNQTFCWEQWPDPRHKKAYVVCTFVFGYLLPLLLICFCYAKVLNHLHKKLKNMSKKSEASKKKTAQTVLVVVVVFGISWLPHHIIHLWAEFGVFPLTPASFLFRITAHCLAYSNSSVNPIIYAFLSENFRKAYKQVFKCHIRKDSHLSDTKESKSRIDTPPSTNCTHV
Experimental: as §1

ETB (h) = biological target: T22, ETB (h) (Homo sapiens, UniProt P24530); details: % of control specific binding
T22 construct: purchased CEREP
T22 sequence (P24530 27-442): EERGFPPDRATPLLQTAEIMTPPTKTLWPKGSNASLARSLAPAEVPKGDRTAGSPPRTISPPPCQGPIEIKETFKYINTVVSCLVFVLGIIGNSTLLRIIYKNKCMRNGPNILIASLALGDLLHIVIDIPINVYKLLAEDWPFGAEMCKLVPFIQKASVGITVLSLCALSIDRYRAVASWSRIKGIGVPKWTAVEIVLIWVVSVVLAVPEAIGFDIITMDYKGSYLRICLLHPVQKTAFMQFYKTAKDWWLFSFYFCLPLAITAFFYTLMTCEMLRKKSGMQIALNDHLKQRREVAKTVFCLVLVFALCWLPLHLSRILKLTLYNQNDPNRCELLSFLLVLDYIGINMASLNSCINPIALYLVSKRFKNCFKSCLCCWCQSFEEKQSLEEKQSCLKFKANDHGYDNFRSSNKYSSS
Experimental: as §1

alpha 2 (non-selective) = details: % of control specific binding
Experimental: as §1

5-HT2C (h) = biological target: T23, 5-HT2C (h) (Homo sapiens, UniProt P28335)
T23 construct: purchased CEREP
T23 sequence (P28335 33-458): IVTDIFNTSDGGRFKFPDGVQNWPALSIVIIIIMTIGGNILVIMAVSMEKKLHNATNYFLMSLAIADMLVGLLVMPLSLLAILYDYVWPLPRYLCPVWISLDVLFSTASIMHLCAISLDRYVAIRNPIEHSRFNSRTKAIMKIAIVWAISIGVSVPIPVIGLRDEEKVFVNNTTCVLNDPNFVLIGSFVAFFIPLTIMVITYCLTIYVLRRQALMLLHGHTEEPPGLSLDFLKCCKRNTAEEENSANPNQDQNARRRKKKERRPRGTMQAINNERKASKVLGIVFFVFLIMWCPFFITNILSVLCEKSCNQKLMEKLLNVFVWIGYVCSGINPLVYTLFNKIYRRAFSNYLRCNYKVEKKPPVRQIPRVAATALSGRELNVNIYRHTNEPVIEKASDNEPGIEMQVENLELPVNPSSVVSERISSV
Experimental: as §1

H1 (h) = biological target: T24, H1 (h) (Homo sapiens, UniProt P35367); details: % of control specific binding
T24 construct: purchased CEREP
Experimental: as §1

5-HT2A (h) = biological target: T25, 5-HT2A (h) (Homo sapiens, UniProt P28223); details: % of control specific binding
T25 construct: purchased CEREP
Experimental: as §1

5-HT1B = biological target: T26, 5-HT1B (Rattus norvegicus, UniProt P28564); details: % of control specific binding
T26 construct: purchased CEREP
Experimental: as §1

GABA (non-selective) = details: % of control specific binding
Experimental: as §1

5-HT3 (h) = biological target: T27, 5-HT3 (h) (Homo sapiens, UniProt P46098); details: % of control specific binding
T27 construct: purchased CEREP
Experimental: as §1

M3 (h) = biological target: T28, M3 (h) (Homo sapiens, UniProt P20309); details: % of control specific binding
T28 construct: purchased CEREP
Experimental: as §1

DA transporter (h) = biological target: T29, DA transporter (h) (Homo sapiens, UniProt Q01959); details: % of control specific binding
T29 construct: purchased CEREP
Experimental: as §1

Y1 (h) = biological target: T30, Y1 (h) (Homo sapiens, UniProt P25929); details: % of control specific binding
T30 construct: purchased CEREP
Experimental: as §1

Na+ channel (site 2) = details: % of control specific binding
Experimental: as §1

NE transporter (h) = biological target: T31, NE transporter (h) (Homo sapiens, UniProt P23975); details: % of control specific binding
T31 construct: purchased CEREP
Experimental: as §1

MC4 (h) = biological target: T32, MC4 (h) (Homo sapiens, UniProt P32245); details: % of control specific binding
T32 construct: purchased CEREP
Experimental: as §1

beta 1 (h) = biological target: T33, beta 1 (h) (Homo sapiens, UniProt P08588); details: % of control specific binding
T33 construct: purchased CEREP
Experimental: as §1

A2A (h) = biological target: T34, A2A (h) (Homo sapiens, UniProt P29274)
T34 construct: purchased CEREP
T34 sequence (P29274 whole entry): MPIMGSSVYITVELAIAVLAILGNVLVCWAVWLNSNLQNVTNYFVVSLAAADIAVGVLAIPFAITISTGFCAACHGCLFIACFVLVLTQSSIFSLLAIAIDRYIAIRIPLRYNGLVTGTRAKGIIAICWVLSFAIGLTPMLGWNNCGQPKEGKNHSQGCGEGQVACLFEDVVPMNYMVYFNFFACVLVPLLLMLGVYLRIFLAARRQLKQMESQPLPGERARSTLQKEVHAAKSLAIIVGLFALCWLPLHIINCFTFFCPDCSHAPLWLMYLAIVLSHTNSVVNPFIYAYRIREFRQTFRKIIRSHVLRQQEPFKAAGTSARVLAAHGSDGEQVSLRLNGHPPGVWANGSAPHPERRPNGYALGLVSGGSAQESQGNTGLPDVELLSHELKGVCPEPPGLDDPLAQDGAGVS
Experimental: as §1

CXCR2 (h) (IL-8B) = biological target: T35, CXCR2 (h) (IL-8B) (Homo sapiens, UniProt P25025); details: % of control specific binding
T35 construct: purchased CEREP
T35 sequence (P25025 whole entry): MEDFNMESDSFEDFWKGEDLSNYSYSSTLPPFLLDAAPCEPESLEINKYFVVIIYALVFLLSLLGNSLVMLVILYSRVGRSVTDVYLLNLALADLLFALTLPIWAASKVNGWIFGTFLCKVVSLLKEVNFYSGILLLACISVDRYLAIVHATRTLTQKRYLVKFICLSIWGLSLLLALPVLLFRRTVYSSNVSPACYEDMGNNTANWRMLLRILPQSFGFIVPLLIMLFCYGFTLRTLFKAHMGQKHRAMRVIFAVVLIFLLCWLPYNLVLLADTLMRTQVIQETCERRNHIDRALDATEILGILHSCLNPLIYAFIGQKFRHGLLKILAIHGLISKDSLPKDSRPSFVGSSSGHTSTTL
Experimental: as §1

SMILES: Cc1nc2ccc(NC(=O)Nc3ccnc4cccnc34)cc2o1.Cl [SB-334867, 1-(2-methylbenzoxazol-6-yl)-3-[1], [5]naphthyridin-4-yl-urea hydrochloride]
- % Control (10 µM) Mean SB (Y2 (h)): 113%
- % Control (10 µM) Mean SB (GAL2 (h)): 97.3%
- % Control (10 µM) Mean SB (BZD (peripheral)): 109.3%
- % Control (10 µM) Mean SB (M2 (h)): 87.3%
- % Control (10 µM) Mean SB (5-HT6 (h)): 102.9%
- % Control (10 µM) Mean SB (NK3 (h)): 86.3%
- % Control (10 µM) Mean SB (beta 2 (h)): 94.6%
- % Control (10 µM) Mean SB (MT2 (h) (agonist site)): 98.6%
- % Control (10 µM) Mean SB (NK1 (h)): 104.4%
- % Control (10 µM) Mean SB (ORL1 (h) (NOP)): 102.9%
- % Control (10 µM) Mean SB (AT1 (h)): 102.3%
- % Control (10 µM) Mean SB (D2S (h)): 101.2%
- % Control (10 µM) Mean SB (D5 (h)): 118.6%
- % Control (10 µM) Mean SB [1]: 92.3%
- % Control (10 µM) Mean SB (D3 (h)): 97.1%
- % Control (10 µM) Mean SB (B2 (h)): 97%
- % Control (10 µM) Mean SB (Cl- channel): 90.6%
- % Control (10 µM) Mean SB (P2X): 94.9%
- % Control (10 µM) Mean SB (5-HT7 (h)): 99.9%
- % Control (10 µM) Mean SB (BB (non-selective)): 109.9%
- % Control (10 µM) Mean SB (M5 (h)): 103.3%
- % Control (10 µM) Mean SB (V1a (h)): 106.1%
- % Control (10 µM) Mean SB (TXA2/PGH2 (h) (TP)): 98.8%
- % Control (10 µM) Mean SB (5-HT transporter (h)): 110.7%
- % Control (10 µM) Mean SB (GAL1 (h)): 118.5%
- % Control (10 µM) Mean SB (ETB (h)): 96.5%
- % Control (10 µM) Mean SB (alpha 2 (non-selective)): 96.1%
- displacement of specific binding (5-HT2C (h); 10 µM, 5HT2C (serotonin 2C)): 70%
- % Control (10 µM) Mean SB (5-HT2C (h); % of control specific binding): 30.4%
- % Control (10 µM) Mean SB (H1 (h)): 100.3%
- % Control (10 µM) Mean SB (5-HT2A (h)): 89.5%
- % Control (10 µM) Mean SB (5-HT1B): 85.9%
- % Control (10 µM) Mean SB (GABA (non-selective)): 105.5%
- % Control (10 µM) Mean SB (5-HT3 (h)): 93.9%
- % Control (10 µM) Mean SB (M3 (h)): 73.1%
- % Control (10 µM) Mean SB (DA transporter (h)): 72.4%
- % Control (10 µM) Mean SB (Y1 (h)): 102.7%
- % Control (10 µM) Mean SB (Na+ channel (site 2)): 62.8%
- % Control (10 µM) Mean SB (NE transporter (h)): 49.4%
- % Control (10 µM) Mean SB (MC4 (h)): 97.9%
- % Control (10 µM) Mean SB (beta 1 (h)): 85.7%
- displacement of specific binding (A2A (h); 10 µM, A2A (adenosine)): 89%
- % Control (10 µM) Mean SB (A2A (h); % of control specific binding): 10.6%
- % Control (10 µM) Mean SB (CXCR2 (h) (IL-8B)): 110.5%

Source: paper PMC3388080 (PLoS ONE, 2012)
